Data published in US20070197646A1, “SUBSTITUTED TARAXASTANES USEFUL FOR TREATING VIRAL INFECTIONS” (ACHILLION PHARMACEUTICALS, INC., priority 2006, published 2007).

Columns and labels:
[1] = system: HIV-1; test: Inhibition of early phase virus replication (MAGI cell β-gal indicator assay); assay type: cell-based; conditions: Human immunodeficiency virus 1; MAGI cells, MOI of 0.00125
Description: (§1) Virology studies are preformed to assess the antiviral potency substituted heterobetulinic acids. The antiviral effect of these compounds is evaluated by parallel studies of inhibition of viral replication and cell viability. Viruses and cells for use in these assays may be obtained from the NIH AIDS Reagent Program.
The effect of compounds on the early phase virus replication, from virus particle attachment through early gene, Tat expression, are evaluated using a CD4-positive LTR-β-galatosidase-expressing HeLa (MAGI) cell indicator line. This assay, described previously to assess the level of β-gal expression, has been modified and adopted in our laboratory. β-gal levels are quantified by photon detection assay, with virus infected cells that are not treated with a capsid formation inhibitor giving the highest level of expression. […]
MAGI Cells are trypsinization and counted using the trepan blue exclusion method, and resuspended at a pre-determined concentration (usually 2×10^4 cells/well) in 10% FBS complete RPMI 1640. […]
The viruses are diluted to a pre-determined MOI/well, typically 0.01 to 1, in Pre-MAGI media plus 20 μg/well DEAE-dextran. […]
Plates are incubated at room temperature (25° C.) for 60-90 minutes or until constant light emission is reached. Plate(s) are read in a luminometer and measured for 0.1-1.0 sec/well.

[2] = system: mock-infected cells; test: Assessment of cytotoxicity (cell viability in parallel); assay type: cell-based
Description: as §1
Plates are incubated at 37° C. in a humidified CO2 incubator for six days. Following incubation of the HIV-1 infected cells with the compound cell viability is assessed using a calorimetric assay of metabolic activity, such as an XTT, MTT or WST-1 assay, or a BrdU incorporation assay. Cytotoxicity of the compound is determined in parallel by measurement of the viability of mock-infected cells treated with the compound. Uninfected cells without compounds are used for a 100% viability control. Infected cells to which no compound is added provide a value for 100% of cell death due to viral infection. The number of surviving or viable cells is quantified by a tetrazolium-based colorimetric method using the CellTiter96 reagent (Promega, Madison, Wis.).

Compound | EC50 [1] [nM] | cytotoxicity [2]
CC1=CC[C@]2(CO)CC[C@]3(C)[C@H](CC[C@@H]4[C@@]5(C)CC[C@H](OC(=O)CC(C)(C)C(=O)O)C(C)(C)[C@@H]5CC[C@]43C)[C@H]2[C@@H]1C [Compound 12] | < 100 | Neither compound was cytotoxic
CC1=CC[C@]2(C(=O)O)CC[C@]3(C)[C@H](CC[C@@H]4[C@@]5(C)CCC(OC(=O)CC(C)(C)C(=O)O)C(C)(C)[C@@H]5CC[C@]43C)[C@H]2[C@@H]1C (stereo partly shown) [Compound 11] | < 2000 | Neither compound was cytotoxic
